The source of these data is patent publication US20170138946A1, “BIOMARKERS FOR RESPONSE TO EZH2 INHIBITORS” (Memorial Sloan-Kettering Cancer Center, priority 2014, published 2017).

The subject of one assay is BAP1-mutant tumor. As to the kind of experiment: Mesothelioma xenografts in NOD-SCID mice treated with EPZ011989, BAP1-mutant tumors. It is filed as in vivo. Conditions: 500 mg/kg BID. The text has this:
FIG. 16A-H. BAP1-mutant mesothelioma cell lines and xenograft models are sensitive to EZH2 inhibition. (a) Expression of EZH2 transcripts in TCGA mesothelioma patients compared to matched normals. (b) Annexin V assays in BAP1 wild-type and mutant cell lines expressing either empty vector or hairpins targeting EZH2. (c) Quantitation of Annexin V experiments in mesothelioma cell lines (d) Tumor size of Meso10 and H226 cell lines expressing EZH2 hairpins implanted into NOD-SCID mice, n=6/group. (e) 2D Cell Titer Glo viability assays after 2 week treatment with EPZ011989 at 1.25 μM. (f) 3D Cell Titer Glo viability assays after 3 weeks EPZ011989 treatment at 1.25 μM. […] Tumors were measured 3× weekly, n=6/group. Target inhibition was assessed by histone western blots in extracted tumors (shown in respective figures). Lung pathology of H2452 cells with vehicle and EPZ1011989 treatment. Arrow indicates bulk metastasized tumor. Statistics were calculated with Student t-test; *p<0.05, **p<0.005; ±SEM values reported.
(§1) Groups of 10 week old NOD-SCID mice were injected subcutaneously in the flank with 6-10×10^6 mesothelioma cell lines (MSTO-211H, Meso10, H226 and H2452) in a 1:1 mixture of matrigel and media. […] Tumor volumes were assessed in three dimensions using a caliper. […]

Assay [1] deals with BAP1-mutant cell lines. Put plainly: 2D Cell Titer Glo viability assay with EPZ011989. It is filed as cell-based, human. The note with it: 2 week treatment at 1.25 μM, compared with wild-type cell lines. From the text:
(§2) FIG. 16A-H. BAP1-mutant mesothelioma cell lines and xenograft models are sensitive to EZH2 inhibition. (a) Expression of EZH2 transcripts in TCGA mesothelioma patients compared to matched normals. (b) Annexin V assays in BAP1 wild-type and mutant cell lines expressing either empty vector or hairpins targeting EZH2. (c) Quantitation of Annexin V experiments in mesothelioma cell lines (d) Tumor size of Meso10 and H226 cell lines expressing EZH2 hairpins implanted into NOD-SCID mice, n=6/group. (e) 2D Cell Titer Glo viability assays after 2 week treatment with EPZ011989 at 1.25 μM. (f) 3D Cell Titer Glo viability assays after 3 weeks EPZ011989 treatment at 1.25 μM. (g) Tumor size formation from BAP1 mutant (MSTO and Meso10) or (h) wild-type cells (H226 and H2452) implanted into NOD-SCID mice and treated with either vehicle or 500 mg/kg BID EPZ011989. Tumors were measured 3× weekly, n=6/group. Target inhibition was assessed by histone western blots in extracted tumors (shown in respective figures). Lung pathology of H2452 cells with vehicle and EPZ1011989 treatment. Arrow indicates bulk metastasized tumor. Statistics were calculated with Student t-test; *p<0.05, **p<0.005; ±SEM values reported.

The subject of the next assay is wild-type tumors. Put plainly: Mesothelioma xenografts in NOD-SCID mice treated with EPZ011989, BAP1 wild-type tumors. It is filed as in vivo. The note with it: 500 mg/kg BID.
Description: as §2, with “Lung pathology of H2452 cells with vehicle and EPZ1011989 treatment. Arrow indicates bulk metastasized tumor.” left out
as §1

Assay [2] relates to MSTO-211H and Meso10 cell lines overexpressing EZH2. As to the kind of experiment: Sensitivity to EPZ011989 of cell lines overexpressing EZH2. The format is cell-based, human. Conditions: MSTO-211H and Meso10 overexpressing EZH2. The text has this: (§3) FIG. 20A-D. BAP1 mutant cell lines are most sensitive to EZH2 inhibition. (a) Meso10 cell line overexpressing EZH2 increasingly proliferated after injection into the flank of NOD-SCID mice. (b) EZH2 was overexpressed in MSTO-211H and Meso10 cell lines. […] (c) BAP1-mutant cells became less invasive when treated with the EZH2 inhibitor GSK126. (d) E-Cadherin expression increased in the cell line H226 following treatment with GSK126.

Assay [3] relates to BAP1-mutant cell lines. Put plainly: 3D Cell Titer Glo viability assay with EPZ011989. It is filed as cell-based, human. The note with it: 3 weeks treatment at 1.25 μM, compared with wild-type cell lines.
Description: as §2

A further assay deals with Bap1 KO mice. As to the kind of experiment: Bap1 KO mice treated with EPZ011989 (genetic Bap1 KO trial). It is filed as in vivo. The note with it: 500 mg/kg BID orally for 16 days. The text has this:
FIG. 11A-K. Proliferation induced by Bap1 deletion is rescued by loss of Ezh2. (a) Western blot of H3K27me3 levels in histones purified from bone marrow of Bap1 KO, Ezh2 KO, Bap1/Ezh2 KO and control mice. (b) Representative images of spleens and (c) enumeration of spleen weight from the indicated genotypes of mice, 3 weeks post pIpC. (d) Peripheral white blood cell counts and (e) hematocrit percentages as quantified by a Hemavet. (f) Flow cytometric enumeration of myeloid progenitors (Lin^− c-Kit^+Sca1^−) and (g) Mature myeloid cells (Mac1^+Gr1^+) (h) Cell cycle analyses in myeloid progenitors using Ki67 and DAPI stain (n=3/group) (i) Western blot for H3K27me3 levels in mice (n=5/group) treated with EPZ011989 twice a day at 500 mg/kg for 16 days. (j) Spleen weights and (k) white blood cell counts after treatment. Unless otherwise indicated, […], n=5/Ezh2 KO, n=8/Bap1 KO, and n=11/Bap1/Ezh2 KO, Statistics were calculated with Student t-test; *p<0.05, **p<0.005; ±SEM values reported. Groups of 10 week old NOD-SCID mice were injected subcutaneously in the flank with 6-10×10^6 mesothelioma cell lines (MSTO-211H, Meso10, H226 and H2452) in a 1:1 mixture of matrigel and media. When tumors reached a size of approximately 60-80 mm^3, treatment with either vehicle (0.5% NaCMC+0.1% Tween-80 in water) or EPZ011989 was initiated. Either EPZ011989 or vehicle were given orally BID at a concentration of 500 mg/kg for the duration of the experiment. Tumor volumes were assessed in three dimensions using a caliper. Tumors or lung tissue were extracted following treatment and utilized for Western blotting to assess target inhibition. […] Researchers were not blinded in these experiments.

In assay [4] the test system is E-Cadherin expression in H226. Put plainly: E-Cadherin expression after GSK126 treatment. The format is cell-based, human. The note with it: cell line H226.
Description: as §3

The test system of assay [5] is BAP1-mutant mesothelioma cells (H2452 xenografts). As to the kind of experiment: H2452 xenografts in NOD-SCID mice treated with GSK126. The format is in vivo. The protocol: FIG. 21A-C. BAP1-mutant mesothelioma cell lines and xenograft models are sensitive to EZH2 inhibition. (a) Tumor volume of H2452 xenografts treated daily with GSK126 at 150 mg/kg or vehicle (n=10 mice per group). 5 mice from each group were euthanized following 16 days of treatment to assess H3K27me3 depletion. The remaining mice were treated for the remainder of the trial. (b) Histone ELISA and Western blot analysis of H3K27me3 levels in tumors from in vivo treated mice after 16 days treatment. (c) H&E staining, Ki67 staining and TUNEL staining of tumors extracted from vehicle treated and GSK126 treated mice, 10× magnification.
Next, whether EZH2 inhibition might inhibit the survival of BAP1-mutant mesothelioma cell lines was assessed. EZH2 silencing induced apoptosis in BAP1-mutant cell lines, whereas wild-type cell lines continued to proliferate (FIGS. 16B,C). EZH2 silencing abrogated in vivo tumor formation of BAP1-mutant but not wild-type cell lines (FIG. 16D). Overexpression of EZH2 in BAP1 wild-type cell lines increased proliferation (FIG. 20A) and sensitivity to EZH2 inhibition (FIG. 20B). […] Next, the impact of EZH2 inhibition in vivo was assessed. […] EZH2 inhibition abrogated pulmonary metastasis in a BAP1-mutant mesothelioma cell line with metastatic potential (FIG. 16G) consistent with a role for BAP1/EZH2 in metastasis (Harbour et al., 2010). EZH2 inhibition reduced invasion and increased E-Cadherin expression in vitro (FIGS. 20C-D). Next, the impact of EZH2 inhibition using the […] GSK126 was assessed. BAP1-mutant mesothelioma cells were injected into the flank of NOD-SCID mice, and then initiated treatment with either vehicle or 150 mg/kg GSK126 after tumor formation.

A further assay has as its system BAP1-mutant cells. As to the kind of experiment: Matrigel invasion assay with GSK126. The format is cell-based, human. The note with it: GSK126 0-2 μM for 7 days. The protocol: Mesothelioma cells (MSTO-211H, H2373, H226 and H2452) were seeded in T75 flasks (100,000 cells). 12 hours later the plated cells were treated with GSK126 (0-2 μM) (Chemitek) and then left to proliferate for 7 days. 250,000 treated cells were then placed on the top of a Matrigel invasion chamber (BD Biosciences, cat no. 354480) in serum free media while the lower chamber contained media with serum. 22 hours later the cells on the bottom of the membrane were stained with crystal violet and quantitated with ImageJ.

[6] abbreviates: tumors extracted from treated mice, 150 mg/kg.

For the molecule `CCN(c1cc(C#CCN2CCOCC2)cc(C(=O)NCc2c(C)cc(C)[nH]c2=O)c1C)[C@H]1CC[C@H](N(C)CCOC)CC1` [EPZ011989], the BAP1-mutant tumor size result with BAP1-mutant tumor (compared to vehicle treated mice) is “significantly reduced”. Further, the pulmonary metastasis result in the assay with BAP1-mutant tumor (BAP1-mutant mesothelioma cell line with metastatic potential (H2452)) is recorded as “abrogated”. The “sensitivity of BAP1-mutant cell lines in 2D culture” value in the assay on BAP1-mutant cell lines [1] is recorded as “more sensitive”. Moreover, in the assay on wild-type tumors, the “response of wild-type tumors (tumor size)” value was “less/not responsive”. In assay [2], the “sensitivity with EZH2 overexpression” value is recorded as “increasingly sensitive”. In addition, the “sensitivity of BAP1-mutant cell lines in 3D culture” value in the assay on BAP1-mutant cell lines [3] is “more sensitive”. In addition, in the assay on Bap1 KO mice, the “splenomegaly (spleen weights)” value is “decreased” and the “white blood cell counts” value is “decreased”. Moreover, in the assay on Bap1 KO mice (Western blot), the H3K27me3 entry is “decreased”.
For `CC[C@H](C)n1cc(C)c2c(C(=O)NCc3c(C)cc(C)[nH]c3=O)cc(-c3ccc(N4CCNCC4)nc3)cc21` [GSK126], the E-Cadherin expression result in assay [4] is given as “increased”. In addition, the tumor size entry in assay [5] (150 mg/kg daily, compared to vehicle treated mice) was “significantly reduced”. Besides, the “H3K27me3 in tumors in vivo” value in assay [5] (150 mg/kg, after 16 days treatment, histone ELISA and Western blot) was “significantly attenuated”. Further, in assay [5] (setting [6]), the Ki67 staining entry is given as “reduced” and the TUNEL staining result was “increased”. Besides, in the assay with BAP1-mutant cells, the invasion entry was “less invasive”.
